Assay: recombinant UMI read abundance after kanamycin selection (control-corrected) (log10(CPM+1)); higher = more efficient recombination; extreme values may be limits of the assay; sequences stand for … in AGTGCAGAGAAAATCGGCCAGTTTTCTCTGCCTGCAGTCCGCATGCCGTGGGACCCCTTGGGTTCTAACCTGTTGCCTAGATTTATGCAGCGGACTGCCTTTCTCCCAAAGTGATAAACCGG…AGGTTGGTTTCACT; site = the 11-nt donor
In short: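 Each donor and donor-binding-loop pair was tracked by a 12-nt UMI on a plasmid carrying a promoterless kanamycin gene. With a second plasmid supplying a fixed target and T7-inducible IS621 bridge recombinase, the pool was plated in Escherichia coli on IPTG (0.07 mM) plus kanamycin or unselected. Sequencing of recombinant UMIs across the donor–target junction gave counts expressed as log10(CPM+1) after replicate averaging and control-derived scaling.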

Row | Sequence | recombinant UMI read abundance (log10)
1 | CGACCGACATGGACCGGTTTTCCCGGTAATCCGTATTTGTT (site CGACCGACTAA) | 0.195
2 | CGACCGACATGGACCGGTTTTCCCGGTAATCCGTATTTGTT (site CGAGCGACTAA) | 0.00884
3 | CGACCGACATGGACCGGTTTTCCCGGTAATCCGTATTTGTT (site CGATCGACTAA) | 0.00843
4 | CGACGACCATGGACCGGTTTTCCCGGTAATCCGTATTTGGG (site CGAAGACCTCC) | 0.0167
5 | CGACGACCATGGACCGGTTTTCCCGGTAATCCGTATTTGGG (site CGACGACCTCC) | 0.0126
6 | CGACGACCATGGACCGGTTTTCCCGGTAATCCGTATTTGGG (site CGAGGACCTCC) | 0.0314
7 | CGACGACCATGGACCGGTTTTCCCGGTAATCCGTATTTGGG (site CGATGACCTCC) | 0.0338
8 | CGACGAGCATGGACCGGTTTTCCCGGTAATCCGTATTTGGG (site ACGTCGACTTT) | 0.00438
9 | CGACTGGCATGGACCGGTTTTCCCGGTAATCCGTATTTGTA (site CGACTGGCTTA) | 1.65
10 | CGAGATCCATGGACCGGTTTTCCCGGTAATCCGTATTTGTT (site CGAGATCCTAA) | 1.4
11 | CGAGATCCATGGACCGGTTTTCCCGGTAATCCGTATTTGTT (site CGGAATCCTAA) | 0
12 | CGAGCACCATGGACCGGTTTTCCCGGTAATCCGTATTTGGG (site CGAGAACCTCC) | 0.00342
13 | CGAGCACCATGGACCGGTTTTCCCGGTAATCCGTATTTGGG (site CGAGCACCTCC) | 0.0175
14 | CGAGCACCATGGACCGGTTTTCCCGGTAATCCGTATTTGGG (site CGAGGACCTCC) | 0.0108
15 | CGAGCACCATGGACCGGTTTTCCCGGTAATCCGTATTTGGG (site CGAGTACCTCC) | 0.0136
16 | CGAGCAGCATGGACCGGTTTTCCCGGTAATCCGTATTTGCC (site CGAGCAGCTGG) | 2.69
17 | CGAGCATCATGGACCGGTTTTCCCGGTAATCCGTATTTGGT (site CGAGCATCTAC) | 2.34

Row | Sequence | recombinant UMI read abundance (log10)
18 | CGAGCCTCATGGACCGGTTTTCCCGGTAATCCGTATTTGCG (site CGAGCCTCTCG) | 2.41
19 | CGAGCGACATGGACCGGTTTTCCCGGTAATCCGTATTTGAA (site CGAGCGACTTT) | 1.74
20 | CGAGCTTCATGGACCGGTTTTCCCGGTAATCCGTATTTGCT (site CGAGCTTCTAG) | 1.85
21 | CGAGCTTCATGGACCGGTTTTCCCGGTAATCCGTATTTGCT (site CGATCATCTAG) | 0
22 | CGAGGGACATGGACCGGTTTTCCCGGTAATCCGTATTTGTC (site CGAGGGACTGA) | 2.59
23 | CGAGTACCATGGACCGGTTTTCCCGGTAATCCGTATTTGAC (site CGAGTACCTGT) | 0
24 | CGAGTACCATGGACCGGTTTTCCCGGTAATCCGTATTTGAC (site CTAGTATCTGT) | 0
25 | CGAGTATCATGGACCGGTTTTCCCGGTAATCCGTATTTGAC (site CAAGTATCTGT) | 2.57
26 | CGAGTATCATGGACCGGTTTTCCCGGTAATCCGTATTTGAC (site CCAGTATCTGT) | 1.99
27 | CGAGTATCATGGACCGGTTTTCCCGGTAATCCGTATTTGAC (site CGAGTATCTGT) | 3.24
28 | CGAGTATCATGGACCGGTTTTCCCGGTAATCCGTATTTGAC (site CTAGTATCTGT) | 2.01
29 | CGAGTATCATGGACCGGTTTTCCCGGTAATCCGTATTTGCT (site CGAGTATCTAG) | 2.71
30 | CGAGTATCATGGACCGGTTTTCCCGGTAATCCGTATTTGCT (site CGATCATCTAG) | 0
31 | CGAGTGGCATGGACCGGTTTTCCCGGTAATCCGTATTTGGT (site AGAGTGGCTAC) | 0.574
32 | CGAGTGGCATGGACCGGTTTTCCCGGTAATCCGTATTTGGT (site CGAGTGGCTAC) | 1.1
33 | CGAGTGGCATGGACCGGTTTTCCCGGTAATCCGTATTTGGT (site GGAGTGGCTAC) | 0.0253
34 | CGAGTGGCATGGACCGGTTTTCCCGGTAATCCGTATTTGGT (site TGAGTGGCTAC) | 0.0187

Source: the supplement of paper PMC11208160
